Assay results reported in US20080248024A1, “THERAPEUTIC AGENT FOR CANCER, INFLAMMATION, AND AUTO-IMMUNE DISEASE CONTAINING INHIBITOR OF ZINC FINGER PROTEIN 91” (Korea Research Institute of Bioscience and Biotechnology, priority 2007, published 2008).
Entries after “also recorded” stand apart in the source; their conditions may differ. Where two headings read alike, the source gives them in different places.

How the values were obtained:
ZFP91 promoter = ZFP91 promoter luciferase reporter assay (pGL3-ZFP91prom-LUC); type: cell-based, human
ZFP91 [1] = assay: ZFP91 expression in MCF-7 treated with NF-κB activators; type: cell-based, human; conditions: TNF-α 20 ng/ml, PMA 20 ng/ml, IL1-β 20 ng/ml, H2O2 1 mM, 0, 3, 6, 14, 24 hours
Experimental: To examine whether ZFP91 expression was regulated by NF-κB, the breast cancer cell line MCF-7 was treated with the NF-κB activators, TNF-α (20 ng/ml), PMA (20 ng/ml), IL1-β (20 ng/ml) and H2O2 (1 mM) for 0, 3, 6, 14, and 24 hours. After 0, 3, 6, 14, and 24 hours from the treatment, poly(A)^+ RNA was extracted, followed by Northern blotting. The probe used for Northern blotting was prepared as follows; TOPO cloning vector inserted with ZFP91 was digested with EcoRI and the insert alone was used after random prime labeling with [α-^32P]dCTP. ZFP91 expressions over the time were investigated. […] The NF-κB activators p65, IKKα, IKKβ, and NIK were expressed in MCF-7 cells. 48 hours later, ZFP91 expressions in the cells were investigated.

[2] = test system: PTPN11, SPIN, ECT2, EWSR1, MLLT4, MAGEA4, TNFAIP3 and ZFP91; assay: RT-PCR of candidate genes regulated by kamebakaurin; type: cell-based, human; conditions: kamebakaurin 10 μg/ml, 5 hours, MDA-MB-231 cells
Experimental: A human breast cancer cell line MDA-MB-231 cells was treated with DMSO and kamebakaurin (10 μg/ml) respectively, followed by culture for 5 hours. The cells were washed with cold PBS three times, and then total RNA was extracted by using RNeasy Mini kits (Qiagen, Santa Clarita, Calif., USA) 5 μg of the total RNA was used for the synthesis of cDNA using Invitrogen kit Access RT-PCR Kit (Promega, Madison, Wis., U.S.A.). The ZFP91 specific primer was constructed based on the nucleotide sequence of Genebank (Accession No. NM-053023). Each candidate gene specific primer was constructed based on the informed nucleotide sequences (Table 1). PCR was performed with prepared cDNA as follows: predenaturation at 95° C. for 5 minutes, denaturation at 94° C. for 1 minute, annealing at 50° C.-60° C. for 2 minutes, polymerization at 70° C. for 1 minute, 30 cycles from denaturation to polymerization. The gene-specific PCR products proceeded to electrophoresis on 1% agarose gel, followed by EtBr staining (FIG. 1).

[3] = test system: MAGEA4, TNFAIP3 and ZFP91; assay: Northern blotting of candidate genes regulated by kamebakaurin; type: cell-based, human; conditions: kamebakaurin 10 μg/ml, 5 hours, MDA-MB-231 cells
Experimental: MDA-MB-231 cells were treated with DMSO and kamebakaurin (10 μg/ml), followed by culture for 5 hours. The cells were washed with cold PBS three times, and poly(A)^+ RNA was extracted by using FastTrack 2.0 kit (Invitrogen). 2 μg of the extracted poly (A)^+ RNA was eletrohporesed on 1% agarose-formaldehyde gel, which was transferred onto a nylon membrane (Roche, Mannheim, Germany). To investigate the expressions of selected candidate genes, the PCR product was purified by using Wizard PCR PrepsDNA Purification Systems (Promega Corporation, Madison, Wis., U.S.A.) and then used as a probe. Each probe was labeled with [α-^32P]dCTP using Rediprime™ II random prime labeling system (Amersham Biosciences). Non-incorporated ^32P was removed by using spin column (ProbeQuant™ G-50 Micro Columns; Amersham Biosciences). The prepared cDNA was used as a probe for hybridization with the membrane. After the hybridization, the membrane was washed with 2×SSC/0.1% SDS, which was exposed on X-ray film at −80° C. with intensifying screen.

MDA-MB-435 [4] = assay: MDA-MB-435 xenograft tumor growth in nude mice; type: in vivo; conditions: 15 mg/kg into the abdominal cavity every other day, 12 times
Experimental: (§1) The human breast cancer cell line MDA-MB-435 was transplanted in the glandular fatty tissues of nude mice (Charles River Laboratory, Wilmington, Mass., USA) at 5 weeks (1×10^6 cells/mouse). 12 days later, the nude mice having tumor were grouped by 8. Kamebakaurin dissolved in 0.5% Tween 80 was administered into the abdominal cavity every other day at the concentrations of 1.5 and 15 mg/kg 12 times in total. The tumor size was measured for 23 days after the transplantation. The tumor size was calculated by “width 2 (square)×[…]/2=tumor volume (mm^3)”.

MDA-MB-435 [5] = assay: MDA-MB-435 xenograft metastasis to the lung in nude mice; type: in vivo; conditions: for Frequency (metastatic mice/total mice) / Minimum metastasis number-maximum metastasis number / number of metastasis in lung (median value) / Mean number of metastasis in lung: 35 days after transplantation; for Mean number of metastasis in lung: colonies >diameter 2 mm
Experimental: as §1
After 35 days from the transplantation, the lung of the mouse was excised and washed with water and fixed in Bouin's solution (SIGMA). The colonies metastasized to the surface of the lung (>diameter 2 mm) were counted under microscope and the mean values are shown in Table 2.

HIF-1α = HIF-1α expression induced under 1% oxygen in AGS cells expressing ZFP91; conditions: AGS cells expressing ZFP91, 1% oxygen
ZFP91 [6] = assay: TNF-α mediated ZFP91 expression in FLAG-ZFP91 expressing AGS cells, Western blotting; conditions: pre-treatment 30 minutes with KA 1, 10 ug/ml, celastrol 0.2, 2 ug/ml, parthenolide 0.5, 5 ug/ml, TNF-α 50 ng/ml 3 hours
Experimental: TNF-α (50 ng/ml) was treated thereto for 3 hours. Then, cell lysate was obtained, followed by Western blot analysis using a mouse anti-FLAG antibody.
FLAG-ZFP91 expressing AGS cells were pre-treated with the NF-κB inhibitors, kamebakaurin (KA), celastrol (Cel), parthenolide (PTN), for 30 minutes. TNF-α mediated ZFP91 expression was investigated by Western blotting using anti-ZFP91 antibody.

ZFP91 [7] = assay: ZFP91 expression after ZFP91 siRNA, Western blotting; type: cell-based, human; conditions: various cancer cells
Description: To investigate the effect of ZFP91 on HIF-1 activation, a human stomach cancer cell line, AGS cells and AGS cells transformed with ZFP91 were transfected with HRE dependent reporter plasmid. ZFP91 siRNA oligomers (SEQ. ID. NO: 1-NO: 4; siRNA sequences corresponding to amino terminal region ccaggtg gcattagtag tgaa, sense: r(AGG UGG CAU UAG UAG UGA A)dTdT, antisense: r(UUC ACU ACU AAU GCC ACC U)dGdG; produced by GIAGEN) were introduced into the above cell lines by using RANiFect Transfection reagent (QIAGEN, Germany).
Particularly, After 24 hours incubation of 1×10^5 cells/well distributed in a 24-well plate. siRNA oligomer (3.8 ul of SIRNA oligomer: 1 ug) was introduced into the cells with 96.2 ul of medium or EC-R buffer and 6 ul of RNAiFect reagent (Quiagen) and then the plate was kept at room temperature for 10-15 minutes. During the incubation, the medium of 24-well plate was replaced with 300 μl of fresh medium and the mixture of siRNA oligomer and RNAiFect reagent was slowly added and carefully mixed. The reaction mixture was incubated for 24 hours under normoxic condition, and then further cultured for another 24 hours in an incubator in the presence of 1% oxygen. Some of extracts of the cells proceeded to luciferase assay and HIF-1 induced luciferase activity was measured. […]

[8] = ZFP91 promoter containing both KB1 and KB2

[Cl-].[Cl-].[Co+2] [CoCl2]
ZFP91 promoter activity (ZFP91 promoter): significantly increased

OO [H2O2]
ZFP91 promoter activity (ZFP91 promoter; stomach cancer cell line transfected with pGL3-ZFP91prom-LUC): significantly increased | ZFP91 at mRNA level (ZFP91 [1]): not much increased | ZFP91 at protein level (ZFP91 [1]): significantly increased time-dependently

CCCCCCCCCCCCCC(=O)O[C@@H]1[C@@H](C)[C@@]2(O)[C@@H](C=C(CO)C[C@]3(O)C(=O)C(C)=C[C@@H]23)[C@@H]2C(C)(C)[C@]12OC(C)=O [PMA]
ZFP91 promoter activity (ZFP91 promoter; [8]): induced | ZFP91 at mRNA level (ZFP91 [1]): not much increased | ZFP91 at protein level (ZFP91 [1]): significantly increased time-dependently

C=C1C(=O)[C@@]23[C@H](O)C[C@@H]4C(C)(C)CC[C@H](O)[C@@]4(CO)[C@@H]2CC[C@@H]1[C@H]3O [kamebakaurin, Kamebakaurin]
expression of PTPN11, SPIN, ECT2, EWSR1, MLLT4, MAGEA4, TNFAIP3 and ZFP91 (RT-PCR) [2]: down-regulated by at least two times | expression levels of MAGEA4, TNFAIP3 and ZFP91 (Northern blotting) vs KA-non-treated control [3]: significantly different | tumor growth (MDA-MB-435 [4]): significantly inhibited | Frequency (metastatic mice/total mice) (MDA-MB-435 [5]; 1.5 mg/kg): 6/8 | Minimum metastasis number-maximum metastasis number (MDA-MB-435 [5]; 1.5 mg/kg): (0-6) | number of metastasis in lung (median value) (MDA-MB-435 [5]; 1.5 mg/kg): 3 | Mean number of metastasis in lung (MDA-MB-435 [5]; 1.5 mg/kg): 3.3 | Frequency (metastatic mice/total mice) (MDA-MB-435 [5]; 15 mg/kg): 6/8 | Minimum metastasis number-maximum metastasis number (MDA-MB-435 [5]; 15 mg/kg): (0-4) | number of metastasis in lung (median value) (MDA-MB-435 [5]; 15 mg/kg): 2 | Mean number of metastasis in lung (MDA-MB-435 [5]; 15 mg/kg): 1.8 | metastasis to the lung (MDA-MB-435 [5]; 15 mg/kg, nude mice, MDA-MB-435): significantly inhibited | HIF-1α expression / accumulation (HIF-1α): suppressed; also recorded: inhibited; also recorded: significantly reduced | TNF-α mediated ZFP91 expression (ZFP91 [6]): suppressed; also recorded: inhibited

IL-1β: pro-inflammatory cytokine, NF-κB activator
ZFP91 promoter activity (ZFP91 promoter; [8]): induced | ZFP91 at mRNA level (ZFP91 [1]): not much increased | ZFP91 at protein level (ZFP91 [1]): significantly increased time-dependently

TNF-α
ZFP91 promoter activity (ZFP91 promoter; [8]): induced | ZFP91 at mRNA level (ZFP91 [1]): not much increased | ZFP91 at protein level (ZFP91 [1]): significantly increased time-dependently

ZFP91 siRNA 1: siRNA corresponding to the nucleotide sequence 710-730 (NCBI, NM-053023) of ZFP91, SEQ. ID. NO: 1 and NO: 2 (chain 1 GGCAUUAGUAGUGAA; chain 2 UUCACUACUAAUGCCACCU; listed as RNA, chemistry not fully specified)
ZFP91 expression (ZFP91 [7]): Suppression

ZFP91 siRNA 2: siRNA corresponding to nucleotides 2261-2279 of 3′ untranslated region of ZFP91, SEQ. ID. NO: 3 and NO: 4 (chain 1 GCGGCACACUUAUCUUCAA; chain 2 UUGAAGAUAAGUGUGCCGC; listed as RNA, chemistry not given here)
ZFP91 expression (ZFP91 [7]): Suppression
